The record followed here is patent US20090275727A1, “Peptide turn mimetics” (MIMETICA PTY LIMITED, priority 1998, published 2009).

The nature of the series: Solubility in water noted when preparing the NMR sample. Conditions: NMR run in 1:9 d3-TFE:H2O instead. The series is classed as physicochemical. As to the method: To a solution of Ac-GY(tBu)LLG-OMe 229 (58 mg, 0.09 mmol) in dichloromethane (2 mL) was added TFA (2 mL) and the solution stirred at rt for 1 h. The volatiles were removed under reduced pressure, and the residue dissolved in acetonitrile (1 mL) and water (1 mL). This solution was purified by preparative HPLC, to give the purified peptide 230 (12.6 mg) as a white solid. [M+H]^+=578.8; Analytical HPLC (0-40% B over 40 min, mL/min, 214 nm): tR=25.51 min; ^1H NMR, 600 MHz, 1:9 d3-TFE:H2O. Consistent with structure.

Where a SMILES comes first, the peptide text is derived from it.

Regarding `COC(=O)CNC(=O)[C@H](CC(C)C)NC(=O)[C@H](CC(C)C)NC(=O)[C@H](Cc1ccc(O)cc1)NC(=O)CNC(C)=O` [Compound 230, Ac-GYLLG-OMe] (HELM PEPTIDE1{[ac].G.Y.L.L.G.[CO[*:1]]}$$$$V2.0), the “Solubility in H2O” value was “not soluble in H2O”.
